Test results: patent US8389512B2 (priority 2008, dated 2013)

Legend:
[1] = 4 hr in-vivo study: meloxicam plasma concentration after oral delivery to rats; details: rat
Excerpt: Male Sprague-Dawley rats, 250-300 g, received with a surgically implanted jugular catheter in place from (Harlan or Taconic Laboratories, USA). Animals were housed one per polycarbonate cage utilizing individual cage cards, with free access to food and water in accordance with NIH guidelines. Animals were quarantined at least 24 hrs after arrival prior to use and patency of the implanted catheter determined on the day of the test. Environmental controls for the animal room were set to maintain 18 to 26° C., a relative humidity of 30 to 70%, a minimum of 10 air changes/hour, and a 12-hour light/12-hour dark cycle. […] Each rat was weighed and the dose volume adjusted accordingly so that the effect of weight variability on results of study was eliminated and that each rat received 1 mg/kg dose.
Briefly, using a gradient elution with a Waters Symmetry C18 column (Waters Inc. USA), LCMS with selective reaction monitoring, protein precipitation of the plasma sample using acetonitrile where an LOQ of 50 ng/ml was achieved. Pharmacokinetic parameters were calculated from individual animal samples using appropriate software (PK Solutions 2.0, Summit Research Services, Montrose, Calif., USA).

[2] = 24 hr in-vivo study: meloxicam plasma concentration and pharmacokinetics after oral (gavage) administration to male rats; details: for Time to Reach 0.59 μg/ml: calculated by interpolation of time vs. concentration data
Excerpt: Male Sprague-Dawley rats, 250-300 g, received with a surgically implanted jugular catheter in place from (Harlan or Taconic Laboratories, USA). Animals were housed one per polycarbonate cage utilizing individual cage cards, with free access to food and water in accordance with NIH guidelines. Animals were quarantined at least 24 hrs after arrival prior to use and patency of the implanted catheter determined on the day of the test. Environmental controls for the animal room were set to maintain 18 to 26° C., a relative humidity of 30 to 70%, a minimum of 10 air changes/hour, and a 12-hour light/12-hour dark cycle. Rats historically have been used in safety evaluation and PK screening studies and are recommended by appropriate regulatory agencies. […] Each rat was weighed and the dose volume adjusted accordingly so that the effect of weight variability on results of study was eliminated and that each rat received 1 mg/kg dose.
(§1) Pharmacokinetic parameters were calculated from individual animal samples using appropriate software (PK Solutions 2.0, Summit Research Services, Montrose, Calif., USA).

[3] = IV comparator group, meloxicam pharmacokinetics in rats; type: in vivo; details: Sprague-Dawley, rat, plasma, 1 mg/kg, PEG400:DMSO formulation
Protocol: In addition, IV comparator group of 5 rats was used to calculate MAT (mean absorption time) and ka (absorption rate constant) parameters since such parameters cannot be determined for the oral groups.
200 micro liters of blood withdrawn from the indwelling intravenous catheter at 5 minutes, 15 minutes, 30 minutes, 45 minutes, 1, 2, 4, 8, 12 and 24 hours to provide sufficient amount of serum for analysis.
as §1

[4] = cited from earlier work
[5] = Accelerated stability testing of cocrystals (PXRD, FTIR); details: 2 months at 40° C.
[6] = male, Sprague-Dawley, rat, plasma, po, 1 mg/kg
[7] = male rats, 1 mg/kg oral, mean N = 5

Compound: Cc1cnc(NC(=O)C2=C(O)c3ccccc3S(=O)(=O)N2C)s1 [Meloxicam, (8E)-8-[hydroxy-[(5-methyl-1,3-thiazol-2-yl)amino]methylidene]-9-methyl-10,10-dioxo-10λ^6-thia-9-azabicyclo[4.4.0]deca-1,3,5-trien-7-one, reference compound]
- concentration at 0 min ([1]; male, Sprague-Dawley, plasma, 1 mg/kg, time 0 min): 0 ng/mL
- concentration at 15 min ([1]; male, Sprague-Dawley, plasma, 1 mg/kg, time 15 min): 8190 ng/mL
- concentration at 30 min ([1]; male, Sprague-Dawley, plasma, 1 mg/kg, time 30 min): 14800 ng/mL
- concentration at 45 min ([1]; male, Sprague-Dawley, plasma, 1 mg/kg, time 45 min): 19600 ng/mL
- concentration at 60 min ([1]; male, Sprague-Dawley, plasma, 1 mg/kg, time 60 min): 24000 ng/mL
- concentration at 120 min ([1]; male, Sprague-Dawley, plasma, 1 mg/kg, time 120 min): 30200 ng/mL
- concentration at 240 min ([1]; male, Sprague-Dawley, plasma, 1 mg/kg, time 240 min): 39400 ng/mL
- Time to Reach 0.59 μg/ml ([2]; male rats, 1 mg/kg oral): 270.0 min
- AUC [2, 6]: 10000 ng·h/mL
- Cmax [2, 6]: 590 ng/mL
- MRT [2, 6]: 21.8 h
- bioavailability [2, 6]: 15.7%
- concentration at 0.0833 hour [2, 6]: 20 ng/mL
- concentration at 0.25 hour [2, 6]: 190 ng/mL
- concentration at 0.5 hour [2, 6]: 280 ng/mL
- concentration at 0.75 hour [2, 6]: 320 ng/mL
- concentration at 1 hour [2, 6]: 390 ng/mL
- concentration at 2 hour [2, 6]: 510 ng/mL
- concentration at 4 hour [2, 6]: 540 ng/mL
- concentration at 8 hour [2, 6]: 530 ng/mL
- concentration at 12 hour [2, 6]: 460 ng/mL
- concentration at 24 hour [2, 6]: 240 ng/mL
- AUC ([3]; read-out: AUC (area under the plasma concentration-time curve at 24 h)): 63600 ng·h/mL
- MRT ([3]; read-out: MRT (mean residence time)): 14.7 h
- solubility in methanol ([4]; methanol): very slightly soluble
- solubility in strong acids and bases ([4]; strong acids and bases, compared with water): higher solubility
- solubility in water ([4]; water): practically insoluble

Compound: Meloxicam:Aspirin Cocrystal (1:1) [Cocrystal 73]
- meloxicam plasma concentration ([1]; time 0 min): 0 µg/mL
- meloxicam plasma concentration ([1]; time 15 min): 26.94 µg/mL
- meloxicam plasma concentration ([1]; time 30 min): 42.67 µg/mL
- meloxicam plasma concentration ([1]; time 45 min): 50.18 µg/mL
- meloxicam plasma concentration ([1]; time 60 min): 52.67 µg/mL
- meloxicam plasma concentration ([1]; time 120 min): 59.23 µg/mL
- meloxicam plasma concentration ([1]; time 240 min): 60.85 µg/mL
- meloxicam plasma concentration ([2]; male rats, 1 mg/kg oral, N = 5, 0.0833 hour): 0.13 µg/mL
- meloxicam plasma concentration ([2]; male rats, 1 mg/kg oral, N = 5, 0.25 hour): 0.87 µg/mL
- meloxicam plasma concentration ([2]; male rats, 1 mg/kg oral, N = 5, 0.5 hour): 1.14 µg/mL
- meloxicam plasma concentration ([2]; male rats, 1 mg/kg oral, N = 5, 0.75 hour): 1.37 µg/mL
- meloxicam plasma concentration ([2]; male rats, 1 mg/kg oral, N = 5, 1 hour): 1.74 µg/mL
- meloxicam plasma concentration ([2]; male rats, 1 mg/kg oral, N = 5, 2 hour): 2.49 µg/mL
- meloxicam plasma concentration ([2]; male rats, 1 mg/kg oral, N = 5, 4 hour): 2.51 µg/mL
- meloxicam plasma concentration ([2]; male rats, 1 mg/kg oral, N = 5, 8 hour): 2.34 µg/mL
- meloxicam plasma concentration ([2]; male rats, 1 mg/kg oral, N = 5, 12 hour): 1.83 µg/mL
- meloxicam plasma concentration ([2]; male rats, 1 mg/kg oral, N = 5, 24 hour): 1.16 µg/mL
- AUC (area under the plasma concentration-time curve at 24 h) [2, 7]: 44100 ng·h/mL
- Cmax (peak plasma concentration) [2, 7]: 2700 ng/mL
- F (bioavailability) [2, 7]: 69.4%
- Time to Reach 0.59 μg/ml ([2]; male rats, 1 mg/kg oral): 10.6 min
- Stability in accelerated stability testing (PXRD profiles) ([5]; 75% RH open and closed vials, and 6 months at 40° C. open vial): stable for 6 months
- Stability in accelerated stability testing (FTIR profiles) ([5]; 75% RH, vials open or closed): stable for 2 months
